According to PubChem BioAssay AID248 (DTP/NCI, 2004):
Several values for one entry are separate records, joined by “and”; a condition that tells them apart may be missing. Identical values can stand only once. Toxic doses and inconclusive results are not listed. Rule as the data show it: active = T/C of 150% or more; inactive = T/C below 125%.

Tested on: L1210 leukemia ip in BDF1 mice, survival T/C
Assay: NCI In Vivo Anticancer Drug Screen. Data for tumor model L1210 Leukemia (intraperitoneal) in B6D2F1 (BDF1) mice
Settings: endpoint: mean survival time, higher = longer survival
Summary of the method: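 Transplanted-tumor mice were given test agent; controls received vehicle only. Survival readings from the two groups were divided (treated over control).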

[1] = dose: 100.0 mg/kg/injection, schedule: Q04DX003 (ip), vehicle: saline with Tween-80
[2] = dose: 200.0 mg/kg/injection, schedule: Q04DX003 (ip), vehicle: saline with Tween-80
[3] = dose: 400.0 mg/kg/injection, schedule: Q04DX003 (ip), vehicle: saline with Tween-80
[4] = dose: 100.0 mg/kg/injection, schedule: Q01DX001 (ip), vehicle: saline
[5] = dose: 200.0 mg/kg/injection, schedule: Q01DX001 (ip), vehicle: saline
[6] = dose: 400.0 mg/kg/injection, schedule: Q01DX001 (ip), vehicle: saline
[7] = dose: 100.0 mg/kg/injection, schedule: Q01DX009 (ip), vehicle: Klucel (hydroxypropylcellulose) (HPC)
[8] = dose: 200.0 mg/kg/injection, schedule: Q01DX009 (ip), vehicle: Klucel (hydroxypropylcellulose) (HPC)
[9] = dose: 50.0 mg/kg/injection, schedule: Q01DX009 (ip), vehicle: Klucel (hydroxypropylcellulose) (HPC)
[10] = dose: 12.5 mg/kg/injection, schedule: Q04DX003 (ip), vehicle: saline
[11] = dose: 25.0 mg/kg/injection, schedule: Q04DX003 (ip), vehicle: saline

Measured: T/C

CC(C)(C)NS(=O)(=O)/C=C/c1ccccc1
inactive: dose: 50.0 mg/kg/injection, schedule: Q01DX009 (ip), vehicle: acetone 95 % of control | dose: 100.0 mg/kg/injection, schedule: Q01DX001 (ip), vehicle: acetone 101 % of control | dose: 100.0 mg/kg/injection, schedule: Q01DX009 (ip), vehicle: acetone 93 % of control | dose: 200.0 mg/kg/injection, schedule: Q01DX001 (ip), vehicle: acetone 102 % of control | dose: 200.0 mg/kg/injection, schedule: Q01DX009 (ip), vehicle: acetone 92 % of control | dose: 400.0 mg/kg/injection, schedule: Q01DX001 (ip), vehicle: acetone 96 % of control

COc1c(NS(=O)(=O)c2ccccc2)cc2c3c(cccc13)CC2
inactive: [1] 97 % of control | [2] 93 % of control | [3] 101 % of control

[CH3][Pb]([CH3])([CH3])[O]C(=O)CCl
inactive: dose: 0.39 mg/kg/injection, schedule: Q01DX009 (ip), vehicle: saline with Tween-80 97 % of control | dose: 0.78 mg/kg/injection, schedule: Q01DX009 (ip), vehicle: saline with Tween-80 97 % of control | dose: 1.56 mg/kg/injection, schedule: Q01DX009 (ip), vehicle: saline with Tween-80 95 % of control and 115 % of control

CC(=O)NC1CCc2ccccc2-c2cccc(=O)cc21 (configuration not stated)
inactive: dose: 0.1 mg/kg/injection, schedule: Q01DX009 (ip), vehicle: Klucel (hydroxypropylcellulose) (HPC) 108 % of control | dose: 0.2 mg/kg/injection, schedule: Q01DX009 (ip), vehicle: Klucel (hydroxypropylcellulose) (HPC) 113 % of control and 124 % of control | dose: 0.39 mg/kg/injection, schedule: Q01DX009 (ip), vehicle: Klucel (hydroxypropylcellulose) (HPC) 118 % of control | dose: 0.78 mg/kg/injection, schedule: Q01DX009 (ip), vehicle: Klucel (hydroxypropylcellulose) (HPC) 86 % of control | dose: 0.78 mg/kg/injection, schedule: Q01DX009 (ip), vehicle: saline 116 % of control

Cc1ccc(C(C)C)cc1NC(=O)Nc1ccccc1F
inactive: [7] 91 % of control | [8] 86 % of control

CCOC(=O)/C=C/c1c(C)[nH]c(=O)[nH]c1=O
inactive: [4] 94 % of control | dose: 150.0 mg/kg/injection, schedule: Q04DX003 (ip), vehicle: saline 102 % of control | [5] 93 % of control | dose: 300.0 mg/kg/injection, schedule: Q04DX003 (ip), vehicle: saline 96 % of control | [6] 93 % of control | dose: 600.0 mg/kg/injection, schedule: Q04DX003 (ip), vehicle: saline 103 % of control

CC(=O)OCC(=O)[C@@]1(O)CC[C@H]2[C@@H]3C[C@H](C)C4=CC(=O)C=C[C@]4(C)[C@@]3(Br)[C@@H](O)C[C@@]21C
inactive: dose: 50.0 mg/kg/injection, schedule: Q01DX001 (sc), vehicle: steriod suspending solution 101 % of control | dose: 100.0 mg/kg/injection, schedule: Q01DX001 (sc), vehicle: steriod suspending solution 109 % of control | dose: 200.0 mg/kg/injection, schedule: Q01DX001 (sc), vehicle: steriod suspending solution 106 % of control | dose: 400.0 mg/kg/injection, schedule: Q01DX001 (sc), vehicle: steriod suspending solution 104 % of control

CC(=O)On1nnc2c(Cl)c(Cl)c(Cl)c(Cl)c21
inactive: dose: 100.0 mg/kg/injection, schedule: Q04DX003 (ip), vehicle: saline 94 % of control | dose: 200.0 mg/kg/injection, schedule: Q04DX003 (ip), vehicle: saline 94 % of control | dose: 400.0 mg/kg/injection, schedule: Q04DX003 (ip), vehicle: saline 87 % of control

CCCCCCCCCC(C)CCCCC (configuration not stated)
inactive: dose: 25.0 mg/kg/injection, schedule: Q01DX001 (ip), vehicle: saline with Tween-80 93 % of control | dose: 50.0 mg/kg/injection, schedule: Q01DX001 (ip), vehicle: saline with Tween-80 98 % of control | dose: 100.0 mg/kg/injection, schedule: Q01DX001 (ip), vehicle: saline with Tween-80 95 % of control and 97 % of control | dose: 200.0 mg/kg/injection, schedule: Q01DX001 (ip), vehicle: saline with Tween-80 98 % of control

OCc1cccc2c1CCC2
inactive: dose: 12.5 mg/kg/injection, schedule: Q01DX001 (ip), vehicle: Klucel (hydroxypropylcellulose) (HPC) 100 % of control | dose: 12.5 mg/kg/injection, schedule: Q01DX009 (ip), vehicle: Klucel (hydroxypropylcellulose) (HPC) 104 % of control | dose: 25.0 mg/kg/injection, schedule: Q01DX001 (ip), vehicle: Klucel (hydroxypropylcellulose) (HPC) 100 % of control | dose: 25.0 mg/kg/injection, schedule: Q01DX009 (ip), vehicle: Klucel (hydroxypropylcellulose) (HPC) 96 % of control | dose: 50.0 mg/kg/injection, schedule: Q01DX001 (ip), vehicle: Klucel (hydroxypropylcellulose) (HPC) 102 % of control | [9] 94 % of control

CN=C(N)c1ccc(N=C(N)c2ccc(N=C(N)c3ccc(C(N)=NC)cc3)cc2)cc1
inactive: dose: 3.7 mg/kg/injection, schedule: Q01DX001 (ip), vehicle: water 108 % of control | dose: 5.3 mg/kg/injection, schedule: Q01DX001 (ip), vehicle: water 103 % of control | dose: 8.0 mg/kg/injection, schedule: Q01DX001 (ip), vehicle: water 102 % of control | dose: 12.0 mg/kg/injection, schedule: Q01DX001 (ip), vehicle: water 108 % of control

COc1cc([N+](=O)[O-])cc2c1OC1(C=C2)N(C)c2ccccc2C1(C)C (configuration not stated)
inactive: dose: 25.0 mg/kg/injection, schedule: Q04DX002 (ip), vehicle: gum acacia 111 % of control | dose: 50.0 mg/kg/injection, schedule: Q04DX002 (ip), vehicle: gum acacia 97 % of control and 100 % of control | dose: 100.0 mg/kg/injection, schedule: Q04DX002 (ip), vehicle: gum acacia 100 % of control | dose: 200.0 mg/kg/injection, schedule: Q04DX002 (ip), vehicle: gum acacia 108 % of control

CCCCCCCCCCCCCCCCCC(=O)N/N=C/C=C/c1ccccc1
inactive: [9] 101 % of control | [7] 98 % of control | [8] 101 % of control and 91 % of control | dose: 400.0 mg/kg/injection, schedule: Q01DX009 (ip), vehicle: Klucel (hydroxypropylcellulose) (HPC) 100 % of control

C=CC1CC=CCC1 (configuration not stated)
inactive: [1] 98 % of control | [2] 97 % of control | [3] 102 % of control

Cc1ccc(S(=O)(=O)N/N=C/c2c(O)ccc3ccccc23)cc1
inactive: dose: 100.0 mg/kg/injection, schedule: Q01DX009 (ip), vehicle: saline with Tween-80 87 % of control | [1] 96 % of control | dose: 200.0 mg/kg/injection, schedule: Q01DX009 (ip), vehicle: saline with Tween-80 89 % of control | [2] 94 % of control | dose: 400.0 mg/kg/injection, schedule: Q01DX009 (ip), vehicle: saline with Tween-80 91 % of control | [3] 94 % of control

[Cl][Ni].[NH-]C(Cc1ccccc1)C(=O)O (configuration not stated)
inactive: dose: 6.25 mg/kg/injection, schedule: Q04DX003 (ip), vehicle: saline 98 % of control | [10] 98 % of control | [11] 91 % of control

CCCC1(CN2c3ccccc3Sc3ccccc32)CCN(CC)C1 (configuration not stated)
inactive: dose: 9.37 mg/kg/injection, schedule: Q01DX009 (ip), vehicle: saline 101 % of control | dose: 12.5 mg/kg/injection, schedule: Q01DX001 (ip), vehicle: saline 97 % of control and 100 % of control | [10] 103 % of control | dose: 18.75 mg/kg/injection, schedule: Q01DX009 (ip), vehicle: saline 95 % of control | dose: 25.0 mg/kg/injection, schedule: Q01DX001 (ip), vehicle: saline 95 % of control | [11] 103 % of control | dose: 37.5 mg/kg/injection, schedule: Q01DX009 (ip), vehicle: saline 92 % of control | dose: 50.0 mg/kg/injection, schedule: Q01DX001 (ip), vehicle: saline 95 % of control and 87 % of control | dose: 50.0 mg/kg/injection, schedule: Q04DX003 (ip), vehicle: saline 97 % of control | dose: 75.0 mg/kg/injection, schedule: Q04DX003 (ip), vehicle: saline 103 % of control

O=[N+]([O-])c1ccc(Oc2c(Cl)cccc2Cl)cc1
inactive: dose: 100.0 mg/kg/injection, schedule: Q04DX003 (ip), vehicle: Klucel (hydroxypropylcellulose) (HPC) 96 % of control | dose: 200.0 mg/kg/injection, schedule: Q04DX003 (ip), vehicle: Klucel (hydroxypropylcellulose) (HPC) 95 % of control | dose: 400.0 mg/kg/injection, schedule: Q04DX003 (ip), vehicle: Klucel (hydroxypropylcellulose) (HPC) 96 % of control
